Measurements as given in PMC7253369, “Cellular and Structural Basis of Synthesis of the Unique Intermediate Dehydro-F420-0 in Mycobacteria” (mSystems, 2020).

Experiments:
FbiA [1] = target: T1, FbiA (Mycolicibacterium smegmatis, UniProt A0QTG2); test: X-ray crystal structure, crystal soaking; type: binding; conditions: pH 8.5, 20% glycerol
T1 construct: expressed in M. smegmatis mc^2155 (homologous host); homodimer
T1 sequence (A0QTG2 1-327): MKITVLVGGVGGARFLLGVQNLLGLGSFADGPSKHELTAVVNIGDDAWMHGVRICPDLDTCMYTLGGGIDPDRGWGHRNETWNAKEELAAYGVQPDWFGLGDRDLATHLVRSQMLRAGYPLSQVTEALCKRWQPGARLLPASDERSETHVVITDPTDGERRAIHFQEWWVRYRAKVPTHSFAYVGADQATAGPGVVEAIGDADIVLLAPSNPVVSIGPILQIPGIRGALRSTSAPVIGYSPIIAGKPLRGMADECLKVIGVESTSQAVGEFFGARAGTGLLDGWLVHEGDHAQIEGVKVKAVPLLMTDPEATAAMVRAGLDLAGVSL

FbiA [2] = target: T1, FbiA; test: X-ray crystal structure, crystal soaking; co-purification with LC-MS; type: binding; conditions: pH 8.5, 20% glycerol; no metal seen; active site of Mol. B; carbonyl part poorly resolved
[3] = target: the molecule itself; test: SEC-MALS; Superdex S200 Increase 10/300 in 200 mM NaCl, 50 mM Tris pH 7.9; purified FbiA; MALS detection (Wyatt)

Nc1nc2c(ncn2[C@@H]2O[C@H](COP(=O)(O)OP(=O)(O)O)[C@@H](O)[C@H]2O)c(=O)[nH]1 [GDP]
X-ray crystal structure, crystal soaking (FbiA [1]; GDP alone and with Fo, active-site Ca2+ in Mol. B, in place of unstable EPPG): FbiA plus GDP, 6UW3; FbiA plus GDP plus Fo, 6UW5

O=c1nc2n(C[C@H](O)[C@H](O)[C@H](O)CO)c3cc(O)ccc3cc-2c(=O)[nH]1 [Fo]
X-ray crystal structure, crystal soaking (FbiA [1]; Fo alone (no metal seen) and with GDP and Ca2+, active site of Mol. B): FbiA plus Fo, 6UW1; FbiA plus GDP, 6UW3; FbiA plus GDP plus Fo, 6UW5

C=C(OP(=O)(O)OC[C@@H](O)[C@@H](O)[C@@H](O)Cn1c2nc(=O)[nH]c(=O)c-2cc2ccc(O)cc21)C(=O)O [DH-F420-0]
X-ray crystal structure, crystal soaking; co-purification with LC-MS (FbiA [2]): FbiA plus DH-F420-0, 6UW7

B1: FbiA from M. smegmatis (enzyme)
chain: T1 sequence (A0QTG2 1-327)
notes: FbiA (phosphotransferase that makes dehydro-F420-0; homologous to CofD) from Mycobacterium smegmatis, gene MSMEG_1830; Copurifies with its product DH-F420-0 and some mature F420 (small molecules); also called MSMEG_1830; Mol. A; source: M. smegmatis mc2155, pMyNT vector, acetamide-induced, purified (Ni2+ agarose, SEC, TEV cleavage); not shown: His6, N-terminal, cleaved
stoichiometry N [3]: 2
